From patent publication US20140113898A1, “BISARYLSULFONE AND DIALKYLARYLSULFONE COMPOUNDS AS CALCIUM CHANNEL BLOCKERS” (Zalicus Pharmaceuticals Ltd., priority 2010, published 2014)

target: T1, CaV2.2 (Homo sapiens, UniProt Q00975); assay: High-throughput CaV2.2/Kir2.3 FLIPR fluorescent assay; assay type: cell-based; settings: Table 4; Fluo-4 FLIPR; closed or inactivated state not stated; read-out: FLIPR data CaV2.2
T1 construct: expressed in transfected cells; host or cells: unnamed doxycycline-inducible cell line
Method: Cells were plated in 384-well, clear-bottom, black-walled, poly-D-lysine coated plates (Becton Dickinson, Franklin Lake, N.J.) 2 days prior to use in the FLIPR assay. 100 μL of cells (1.4×10^6 cell/mL) containing doxycyline (Sigma-Aldrich, 1.5 μg/mL; to induce channel expression) were added to each well using a Multidrop (Thermo Scientific, Waltham, Mass.) and were maintained in 5% CO2 incubator at 37° C. On the morning of the assay, cells were transferred to a 5% CO2 incubator at 29° C.
Cells were washed with a wash buffer containing (in mM): 118 NaCl, 18.4 HEPES, 11.7 D-glucose, 2 CaCl2, 0.5 MgSO4, 4.7 KCl, 1.2 KH2PO4, pH adjusted to 7.2 with NaOH. 4.4 μM of the fluorescent indicator dye, Fluo-4 (Invitrogen), prepared in pluronic acid (Sigma-Aldrich), was loaded into the wells and incubated for 45 minutes at 29° C. in 5% CO2. Cells were then rinsed with either a 2 mM KCl closed-state buffer (in mM: 138.5 NaCl, 10 HEPES, 10 D-glucose, 1 CaCl2, and 2 KCl, with the pH adjusted to 7.4 with NaOH) when performing the closed-state assay or 12.5 mM KCl inactivated-state buffer (in mM: 128 NaCl, 10 HEPES, 10 D-glucose, 1 CaCl2, and 12.5 mM KCl, with the pH adjusted to 7.4 with NaOH) when performing the inactivated-state assay.
Calcium entry was evoked with an addition of 130 mM KCl stimulation buffer (in mM: 10.5 NaCl, 10 HEPES, 10 D-glucose, 1 CaCl2, and 130 KCl, with the pH adjusted to 7.4 with NaOH) for both the closed-state or inactivated-state assay. A change in the Fluo-4 fluorescence signal was assessed using FLIPR^TETRA™ instrument (Molecular Devices, Sunnyvale, Calif.) for 3 minutes following the elevation of extracellular KCl using an illumination wavelength of 470-495 nm with emissions recorded at 515-575 nm.
Concentration-dependent response curves were obtained by comparing the fluorescence signal in the presence of compound and fitted with a logistic function (1) to obtain the concentration that inhibited 50% (IC50) of the RLU signal using OriginPro v.7.5 software (OriginLab, Northampton, Mass.).
To assess the quality of the FLIPR assays the Z-factor (2) was used to quantify the suitability of the assay conditions using the following equation: […]
Data are expressed as mean and standard deviation (SD).

T1 sequence (Q00975 whole entry): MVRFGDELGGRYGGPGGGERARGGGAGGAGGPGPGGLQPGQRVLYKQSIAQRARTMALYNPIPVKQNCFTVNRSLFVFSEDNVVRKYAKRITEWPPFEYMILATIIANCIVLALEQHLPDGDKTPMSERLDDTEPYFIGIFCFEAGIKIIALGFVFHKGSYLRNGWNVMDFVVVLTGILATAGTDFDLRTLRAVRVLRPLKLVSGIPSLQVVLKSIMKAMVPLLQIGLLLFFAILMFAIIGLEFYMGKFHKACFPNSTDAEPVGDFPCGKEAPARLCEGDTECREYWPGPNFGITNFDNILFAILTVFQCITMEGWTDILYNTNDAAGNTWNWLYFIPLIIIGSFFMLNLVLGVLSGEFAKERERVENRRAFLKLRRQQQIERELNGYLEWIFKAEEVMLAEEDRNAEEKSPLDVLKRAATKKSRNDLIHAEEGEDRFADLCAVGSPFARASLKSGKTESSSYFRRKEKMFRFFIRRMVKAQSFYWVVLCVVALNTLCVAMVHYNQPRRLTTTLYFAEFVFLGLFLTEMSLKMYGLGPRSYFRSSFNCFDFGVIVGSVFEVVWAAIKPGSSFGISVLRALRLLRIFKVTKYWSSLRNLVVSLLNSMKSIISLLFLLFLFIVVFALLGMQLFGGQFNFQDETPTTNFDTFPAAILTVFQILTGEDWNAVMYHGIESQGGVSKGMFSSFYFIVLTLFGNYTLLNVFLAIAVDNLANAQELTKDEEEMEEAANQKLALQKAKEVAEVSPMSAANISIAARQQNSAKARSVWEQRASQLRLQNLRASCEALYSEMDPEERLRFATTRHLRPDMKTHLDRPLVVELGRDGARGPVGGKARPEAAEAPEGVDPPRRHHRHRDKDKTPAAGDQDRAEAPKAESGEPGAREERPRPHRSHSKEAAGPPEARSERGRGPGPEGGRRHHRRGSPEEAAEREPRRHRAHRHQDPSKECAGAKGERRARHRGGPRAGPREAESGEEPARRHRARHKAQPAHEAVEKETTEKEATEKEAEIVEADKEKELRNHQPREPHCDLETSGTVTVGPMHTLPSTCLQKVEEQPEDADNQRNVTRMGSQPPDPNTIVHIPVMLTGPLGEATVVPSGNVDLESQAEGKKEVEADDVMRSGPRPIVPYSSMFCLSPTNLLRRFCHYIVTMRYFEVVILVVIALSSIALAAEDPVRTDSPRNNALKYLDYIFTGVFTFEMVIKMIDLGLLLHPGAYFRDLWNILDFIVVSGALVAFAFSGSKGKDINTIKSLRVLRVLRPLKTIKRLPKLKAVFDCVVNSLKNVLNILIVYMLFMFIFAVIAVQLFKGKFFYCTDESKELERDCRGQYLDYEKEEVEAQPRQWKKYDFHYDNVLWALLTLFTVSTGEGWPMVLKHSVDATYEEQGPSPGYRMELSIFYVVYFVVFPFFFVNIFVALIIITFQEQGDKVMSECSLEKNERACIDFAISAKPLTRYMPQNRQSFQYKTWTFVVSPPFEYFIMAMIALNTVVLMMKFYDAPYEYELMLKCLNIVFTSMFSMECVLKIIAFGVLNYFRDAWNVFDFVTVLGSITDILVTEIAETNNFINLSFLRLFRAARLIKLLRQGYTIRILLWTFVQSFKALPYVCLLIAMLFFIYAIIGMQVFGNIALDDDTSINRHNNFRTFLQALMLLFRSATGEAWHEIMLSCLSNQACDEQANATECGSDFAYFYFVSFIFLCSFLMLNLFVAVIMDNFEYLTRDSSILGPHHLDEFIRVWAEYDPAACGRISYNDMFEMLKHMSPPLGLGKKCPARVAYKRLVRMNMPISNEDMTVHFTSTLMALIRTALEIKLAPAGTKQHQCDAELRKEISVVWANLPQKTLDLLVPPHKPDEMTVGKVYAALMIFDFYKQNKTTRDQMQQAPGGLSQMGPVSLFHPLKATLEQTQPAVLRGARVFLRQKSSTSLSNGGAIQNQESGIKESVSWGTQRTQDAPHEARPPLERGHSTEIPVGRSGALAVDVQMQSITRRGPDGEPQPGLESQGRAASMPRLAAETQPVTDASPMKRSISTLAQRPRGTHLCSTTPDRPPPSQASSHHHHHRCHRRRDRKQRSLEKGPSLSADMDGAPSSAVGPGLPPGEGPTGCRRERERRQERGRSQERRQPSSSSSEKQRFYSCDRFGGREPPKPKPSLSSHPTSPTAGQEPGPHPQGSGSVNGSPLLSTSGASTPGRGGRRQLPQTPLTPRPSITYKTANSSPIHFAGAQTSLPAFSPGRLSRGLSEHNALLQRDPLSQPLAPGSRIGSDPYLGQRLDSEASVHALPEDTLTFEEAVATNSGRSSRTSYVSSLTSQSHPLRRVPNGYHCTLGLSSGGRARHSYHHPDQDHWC
T1 sequence (P54284 whole entry partner): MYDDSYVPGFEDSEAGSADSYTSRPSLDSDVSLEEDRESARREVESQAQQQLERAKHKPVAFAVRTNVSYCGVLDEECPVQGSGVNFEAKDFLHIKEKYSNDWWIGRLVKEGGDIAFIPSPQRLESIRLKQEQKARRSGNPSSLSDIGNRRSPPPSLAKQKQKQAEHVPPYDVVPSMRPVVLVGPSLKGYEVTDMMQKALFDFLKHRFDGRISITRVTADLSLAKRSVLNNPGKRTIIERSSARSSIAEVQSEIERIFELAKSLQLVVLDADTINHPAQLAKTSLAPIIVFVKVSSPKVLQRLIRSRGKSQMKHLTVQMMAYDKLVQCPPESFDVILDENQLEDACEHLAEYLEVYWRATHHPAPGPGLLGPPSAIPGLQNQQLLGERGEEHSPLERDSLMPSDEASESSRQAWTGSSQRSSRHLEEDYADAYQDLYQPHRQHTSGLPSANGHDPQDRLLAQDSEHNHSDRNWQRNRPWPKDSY
T1 sequence (P54289 25-946 partner limits assumed): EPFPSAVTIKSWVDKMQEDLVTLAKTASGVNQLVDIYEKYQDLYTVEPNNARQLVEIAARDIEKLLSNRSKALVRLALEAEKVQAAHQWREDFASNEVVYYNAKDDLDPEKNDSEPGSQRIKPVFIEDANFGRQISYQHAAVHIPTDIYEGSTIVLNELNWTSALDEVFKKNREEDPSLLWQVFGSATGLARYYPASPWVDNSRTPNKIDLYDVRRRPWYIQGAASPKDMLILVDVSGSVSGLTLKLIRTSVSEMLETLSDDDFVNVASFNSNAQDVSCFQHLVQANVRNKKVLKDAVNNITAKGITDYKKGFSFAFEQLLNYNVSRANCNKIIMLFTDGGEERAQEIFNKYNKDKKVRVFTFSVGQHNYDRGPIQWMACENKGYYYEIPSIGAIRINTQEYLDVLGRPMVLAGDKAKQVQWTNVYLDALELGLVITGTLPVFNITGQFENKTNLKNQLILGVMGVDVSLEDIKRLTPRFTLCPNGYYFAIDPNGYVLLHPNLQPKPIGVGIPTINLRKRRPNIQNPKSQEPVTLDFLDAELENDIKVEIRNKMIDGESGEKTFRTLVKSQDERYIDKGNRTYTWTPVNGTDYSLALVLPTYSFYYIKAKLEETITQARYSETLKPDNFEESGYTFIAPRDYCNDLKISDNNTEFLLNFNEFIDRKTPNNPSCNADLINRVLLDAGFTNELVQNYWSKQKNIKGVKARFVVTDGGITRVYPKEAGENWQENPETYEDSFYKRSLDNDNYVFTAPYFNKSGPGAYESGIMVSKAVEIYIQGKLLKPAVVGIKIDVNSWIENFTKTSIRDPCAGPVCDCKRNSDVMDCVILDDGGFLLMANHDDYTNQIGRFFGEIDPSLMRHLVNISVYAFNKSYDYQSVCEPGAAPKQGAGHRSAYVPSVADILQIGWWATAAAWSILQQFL
T1 sequence (P54289 947-1103 partner limits assumed): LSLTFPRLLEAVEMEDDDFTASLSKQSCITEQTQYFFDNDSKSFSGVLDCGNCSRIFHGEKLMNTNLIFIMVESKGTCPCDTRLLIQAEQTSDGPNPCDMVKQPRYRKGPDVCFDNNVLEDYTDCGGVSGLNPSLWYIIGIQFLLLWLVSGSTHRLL

| Structure (SMILES) | IC50 [nM] |
| --- | --- |
| CS(=O)(=O)c1nc(C(F)(F)F)ccc1C(=O)NCc1ccc(S(=O)(=O)c2cccc(C(F)(F)F)c2)cn1 [Compound 92, 2-(methylsulfonyl)-6-(trifluoromethyl)-N-((5-((3-(trifluoromethyl)phenyl)sulfonyl)pyridin-2-yl)methyl)nicotinamide] | 2330 |
| O=C(CCC(F)(F)F)NCc1ccccc1S(=O)(=O)c1cccc(C(F)(F)F)c1 [Compound 55, 4,4,4-trifluoro-N-(2-((3-(trifluoromethyl)phenyl)sulfonyl)benzyl)butanamide] | 2680 |
| CC1(C(=O)NCc2ccc(S(=O)(=O)c3cccc(C(F)(F)F)c3)cc2)CCCCN1 (stereo not drawn) [Compound 85, 2-methyl-N-(4-((3-(trifluoromethyl)phenyl)sulfonyl)benzyl)piperidine-2-carboxamide] | 1940 |
| COc1cc(C(=O)NCc2ccc(S(=O)(=O)c3cccc(C(F)(F)F)c3)cn2)cc(Cl)n1 [Compound 101, 2-chloro-6-methoxy-N-((5-((3-(trifluoromethyl)phenyl)sulfonyl)pyridin-2-yl)methyl)isonicotinamide] | 1460 |
| NC1(C(=O)NCc2ccc(S(=O)(=O)c3cccc(C(F)(F)F)c3)cc2)CC1 [Compound 65, 1-amino-N-(4-((3-(trifluoromethyl)phenyl)sulfonyl)benzyl)cyclopropanecarboxamide] | 5630 |
| NC1(C(=O)NCc2ccc(S(=O)(=O)c3cccc(C(F)(F)F)c3)cc2)CCS(=O)(=O)CC1 [Compound 61, 4-amino-N-(4-((3-(trifluoromethyl)phenyl)sulfonyl)benzyl)tetrahydro-2H-thiopyran-4-carboxamide 1,1-dioxide] | 4680 |

same assay, conditions: Table 5; Fluo-4 FLIPR; closed or inactivated state not stated; read-out: FLIPR data CaV2.2

| Structure (SMILES) | IC50 [nM] |
| --- | --- |
| CC(C)(CCNC(=O)c1ccc(S(C)(=O)=O)cc1)S(=O)(=O)c1cccc(C(F)(F)F)c1 [Compound 191, N-(3-methyl-3-((3-(trifluoromethyl)phenyl)sulfonyl)butyl)-4-(methylsulfonyl)benzamide] | 1420 |
| CN1CCCCC1C(=O)NCCC(C)(C)S(=O)(=O)c1cccc(C(F)(F)F)c1 (stereo not drawn) [Compound 221, 1-methyl-N-(3-methyl-3-((3-(trifluoromethyl)phenyl)sulfonyl)butyl)piperidine-2-carboxamide] | 6100 |
| CC(C)(CCNC(=O)C1(N)CCCCC1)S(=O)(=O)c1cccc(C(F)(F)F)c1 [Compound 207, 1-amino-N-(3-methyl-3-((3-(trifluoromethyl)phenyl)sulfonyl)butyl)cyclohexanecarboxamide] | 1390 |
| CC(C)(CCNC(=O)[C@H]1CCCN1)S(=O)(=O)c1cccc(C(F)(F)F)c1 [Compound 220, (R)-N-(3-methyl-3-((3-(trifluoromethyl)phenyl)sulfonyl)butyl)pyrrolidine-2-carboxamide] | 3430 |
| CC(C)(CNC(=O)c1ncc(C(F)(F)F)cc1S(C)(=O)=O)S(=O)(=O)c1cccc(C(F)(F)F)c1 [Compound 156, N-(2-methyl-2-((3-(trifluoromethyl)phenyl)sulfonyl)propyl)-3-(methylsulfonyl)-5-(trifluoromethyl)picolinamide] | 1080 |
| CC(C)(CCNC(=O)[C@H](N)c1ccccc1)S(=O)(=O)c1cccc(C(F)(F)F)c1 [Compound 200] | 1050 |
| CC(C)(C(=O)Nc1ccc(Oc2ccncc2)cc1)S(=O)(=O)c1cccc(C(F)(F)F)c1 [Compound 143, 2-methyl-N-(4-(pyridin-4-yloxy)phenyl)-2-((3-(trifluoromethyl)phenyl)sulfonyl)propanamide] | 10000 |
| CO[C@H]1CN[C@@H](C(=O)NCCC(C)(C)S(=O)(=O)c2cccc(C(F)(F)F)c2)C1 [Compound 199, (2R,4R)-4-methoxy-N-(3-methyl-3-((3-(trifluoromethyl)phenyl)sulfonyl)butyl)pyrrolidine-2-carboxamide] | 3310 |
| CC(C)(NC(=O)CC(C)(C)S(=O)(=O)c1cccc(C(F)(F)F)c1)c1ccccc1 [Compound 152, 3-methyl-N-(2-phenylpropan-2-yl)-3-((3-(trifluoromethyl)phenyl)sulfonyl)butanamide] | 4240 |
